Measured values: paper PMC9851200, “Multiparameter phenotypic screening for endogenous TFEB and TFE3 translocation identifies novel chemical series modulating lysosome function” (Autophagy, 2022)

Tests used:
Assay type in all cases: binding
[1] = target: T1, kinases (KINOMEscan panel) (Homo sapiens, UniProt O75747); conditions: NEW KINOMEscan
T1 sequence (O75747 1-1486): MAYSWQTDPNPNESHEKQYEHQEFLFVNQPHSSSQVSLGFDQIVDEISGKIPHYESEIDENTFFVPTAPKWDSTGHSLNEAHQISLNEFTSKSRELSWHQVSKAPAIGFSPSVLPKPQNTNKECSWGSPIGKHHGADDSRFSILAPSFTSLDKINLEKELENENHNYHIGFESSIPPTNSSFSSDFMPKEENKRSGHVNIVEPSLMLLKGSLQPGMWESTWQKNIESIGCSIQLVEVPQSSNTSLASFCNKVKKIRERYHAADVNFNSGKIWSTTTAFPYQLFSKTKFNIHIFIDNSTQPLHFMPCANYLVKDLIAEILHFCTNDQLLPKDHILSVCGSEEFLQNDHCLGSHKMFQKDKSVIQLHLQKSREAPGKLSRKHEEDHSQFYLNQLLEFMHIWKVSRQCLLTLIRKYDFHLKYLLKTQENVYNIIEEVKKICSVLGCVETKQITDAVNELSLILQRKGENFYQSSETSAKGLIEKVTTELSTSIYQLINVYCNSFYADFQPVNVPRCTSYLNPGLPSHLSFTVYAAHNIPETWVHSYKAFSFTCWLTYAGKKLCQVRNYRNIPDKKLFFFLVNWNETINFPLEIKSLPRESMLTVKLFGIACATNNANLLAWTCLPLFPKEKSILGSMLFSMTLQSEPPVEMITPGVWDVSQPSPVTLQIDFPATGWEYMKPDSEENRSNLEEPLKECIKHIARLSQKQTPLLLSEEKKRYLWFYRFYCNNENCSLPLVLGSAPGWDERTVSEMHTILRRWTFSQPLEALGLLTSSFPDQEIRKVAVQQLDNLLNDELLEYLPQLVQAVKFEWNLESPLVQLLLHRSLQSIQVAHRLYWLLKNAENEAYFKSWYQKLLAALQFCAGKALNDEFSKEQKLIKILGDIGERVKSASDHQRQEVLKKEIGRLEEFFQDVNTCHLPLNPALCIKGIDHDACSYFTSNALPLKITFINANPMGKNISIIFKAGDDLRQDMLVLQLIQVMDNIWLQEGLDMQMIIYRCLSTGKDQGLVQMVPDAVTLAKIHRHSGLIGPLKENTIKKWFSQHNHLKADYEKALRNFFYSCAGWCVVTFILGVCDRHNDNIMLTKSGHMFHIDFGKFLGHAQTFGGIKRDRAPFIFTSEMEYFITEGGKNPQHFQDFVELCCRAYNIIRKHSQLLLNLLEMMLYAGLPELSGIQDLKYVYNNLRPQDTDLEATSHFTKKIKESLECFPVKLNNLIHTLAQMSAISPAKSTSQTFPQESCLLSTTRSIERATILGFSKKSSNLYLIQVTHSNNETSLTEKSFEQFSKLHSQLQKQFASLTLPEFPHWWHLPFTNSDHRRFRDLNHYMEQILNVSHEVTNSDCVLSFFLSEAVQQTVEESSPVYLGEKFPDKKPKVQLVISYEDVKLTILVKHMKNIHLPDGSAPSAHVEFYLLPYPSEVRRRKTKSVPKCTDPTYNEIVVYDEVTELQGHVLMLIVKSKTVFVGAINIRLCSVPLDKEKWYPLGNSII

[2] = target: kinases (KINOMEscan panel) (Homo sapiens, UniProt P11362); conditions: kinase FGFR1; NEW KINOMEscan
Chain of kinases (KINOMEscan panel) (Homo sapiens, UniProt P11362) (P11362 22-822): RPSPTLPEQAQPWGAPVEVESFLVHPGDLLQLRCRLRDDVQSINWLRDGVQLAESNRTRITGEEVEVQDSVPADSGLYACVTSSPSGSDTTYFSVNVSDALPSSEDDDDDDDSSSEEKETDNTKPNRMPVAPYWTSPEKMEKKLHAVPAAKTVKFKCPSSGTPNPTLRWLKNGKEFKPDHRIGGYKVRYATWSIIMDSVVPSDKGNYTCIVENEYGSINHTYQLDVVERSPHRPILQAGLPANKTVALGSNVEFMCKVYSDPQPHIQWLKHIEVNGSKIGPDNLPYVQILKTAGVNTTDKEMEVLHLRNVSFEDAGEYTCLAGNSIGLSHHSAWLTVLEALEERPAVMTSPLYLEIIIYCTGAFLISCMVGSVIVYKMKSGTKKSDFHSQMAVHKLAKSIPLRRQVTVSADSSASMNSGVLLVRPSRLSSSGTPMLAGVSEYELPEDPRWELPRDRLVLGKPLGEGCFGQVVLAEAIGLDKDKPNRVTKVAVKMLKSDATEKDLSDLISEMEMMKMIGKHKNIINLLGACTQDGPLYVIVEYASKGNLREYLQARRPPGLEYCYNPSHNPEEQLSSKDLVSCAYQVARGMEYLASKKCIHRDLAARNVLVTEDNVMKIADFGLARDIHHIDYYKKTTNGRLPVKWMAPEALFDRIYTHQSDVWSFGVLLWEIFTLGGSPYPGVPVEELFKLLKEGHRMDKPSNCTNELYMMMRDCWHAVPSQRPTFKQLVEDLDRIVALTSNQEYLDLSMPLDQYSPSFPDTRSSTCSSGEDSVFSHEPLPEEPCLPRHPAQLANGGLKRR

[3] = target: T2, kinases (KINOMEscan panel) (Homo sapiens, UniProt Q04771); conditions: ACVR1; NEW KINOMEscan
T2 sequence (Q04771 21-509): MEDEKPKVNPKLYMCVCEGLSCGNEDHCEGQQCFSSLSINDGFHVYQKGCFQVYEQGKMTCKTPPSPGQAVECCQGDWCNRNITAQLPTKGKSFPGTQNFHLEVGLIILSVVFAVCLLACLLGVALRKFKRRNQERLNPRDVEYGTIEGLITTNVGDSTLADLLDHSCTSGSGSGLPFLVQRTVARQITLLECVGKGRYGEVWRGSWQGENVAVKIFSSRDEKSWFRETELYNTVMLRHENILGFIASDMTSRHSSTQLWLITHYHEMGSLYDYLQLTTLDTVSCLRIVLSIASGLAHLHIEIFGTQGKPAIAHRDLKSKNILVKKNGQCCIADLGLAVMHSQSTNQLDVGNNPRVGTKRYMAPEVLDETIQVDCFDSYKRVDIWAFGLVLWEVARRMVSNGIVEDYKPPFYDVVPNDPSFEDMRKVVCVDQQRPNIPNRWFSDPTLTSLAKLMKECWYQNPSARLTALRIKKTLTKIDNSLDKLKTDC

[4] = target: T3, kinases (KINOMEscan panel) (Homo sapiens, UniProt Q8IYT8); conditions: NEW KINOMEscan
T3 sequence (Q8IYT8 1-1036): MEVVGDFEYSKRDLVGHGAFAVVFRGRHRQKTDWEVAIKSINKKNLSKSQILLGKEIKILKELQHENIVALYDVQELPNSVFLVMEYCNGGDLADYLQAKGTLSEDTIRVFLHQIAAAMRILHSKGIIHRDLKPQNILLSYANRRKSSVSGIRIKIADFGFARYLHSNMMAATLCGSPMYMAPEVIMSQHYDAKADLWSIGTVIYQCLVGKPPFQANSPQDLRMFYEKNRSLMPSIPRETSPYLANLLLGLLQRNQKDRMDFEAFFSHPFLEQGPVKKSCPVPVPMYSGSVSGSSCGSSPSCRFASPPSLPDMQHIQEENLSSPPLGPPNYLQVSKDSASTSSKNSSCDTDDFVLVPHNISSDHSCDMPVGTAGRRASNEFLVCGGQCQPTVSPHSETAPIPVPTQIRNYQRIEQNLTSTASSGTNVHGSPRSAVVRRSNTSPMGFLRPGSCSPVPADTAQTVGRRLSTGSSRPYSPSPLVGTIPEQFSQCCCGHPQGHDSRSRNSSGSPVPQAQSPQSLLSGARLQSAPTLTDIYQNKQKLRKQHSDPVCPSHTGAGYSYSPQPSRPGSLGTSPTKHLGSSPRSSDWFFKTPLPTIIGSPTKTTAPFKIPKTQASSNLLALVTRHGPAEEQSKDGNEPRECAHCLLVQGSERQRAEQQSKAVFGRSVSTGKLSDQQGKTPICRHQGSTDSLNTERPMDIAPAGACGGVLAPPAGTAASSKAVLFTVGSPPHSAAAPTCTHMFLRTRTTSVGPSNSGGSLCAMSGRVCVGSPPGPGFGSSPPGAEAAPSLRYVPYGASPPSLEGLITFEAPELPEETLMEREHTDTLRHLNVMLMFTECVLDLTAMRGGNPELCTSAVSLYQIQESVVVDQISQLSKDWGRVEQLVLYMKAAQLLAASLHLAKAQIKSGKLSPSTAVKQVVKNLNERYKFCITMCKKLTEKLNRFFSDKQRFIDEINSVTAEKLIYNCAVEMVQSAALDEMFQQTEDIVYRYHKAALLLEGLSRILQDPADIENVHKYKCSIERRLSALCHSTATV

Compound | KINOMEscan PIK3C2G [1] | KINOMEscan FGFR1 [2] | KINOMEscan ACVR1 [3] | KINOMEscan ULK2 [4]
Cc1cccc(-c2nc(Nc3ccc4nn(C)cc4c3)c3ccccc3n2)n1 [NK167] | 0 | 15 | 0 | 17
Cc1cccc(-c2nc(N(C)c3ccc4ncsc4c3)c3ccccc3n2)n1 [NK-161] | 0 | 10 | 0 | 23
